The values that follow come from patent US20240316213A1, “ANTIBODY-PROTAMINE FUSIONS AS TARGETING COMPOUNDS OF A PROTAMINE-BASED NANOPARTICLE” (Universität Münster, priority 2021, published 2024).

Data set [1] is described as follows: Cell-free vesicle/nanoparticle formation on chamber slides, microscopy. The data set is classed as physicochemical. From the text:
Based upon these measurements, we hypothesized that the antibody-protamine/free SMCC-protamine/siRNA complexes form outside cells and independently of a cellular context. […]
In detail, the nanostructures resemble a spheroid shape of micrometre size, formed by the three components mAB-SMCC-protamine, unconjugated SMCC-protamine and the Alexa488-labeled siRNA (FIG. 37). The structures are verified by fluorescence microscopy and laser scan confocal microscopy. It became evident that the spheroid structures are completely filled with Alexa488 signals from the siRNA compound.

Data set [2] has as its system HBL-1 cells. The data set is described as follows: Colony formation assay, HBL-1. The data set is classed as cell-based. As for the experimental part:
Next, we planned functional assays for identifying the effectivity of the antibody-inhibitor-complexes. DLBCL tumor cells were seeded in methylcellulose to form anchorage-free colony growth as a substitute marker for tumorigenicity. Assays were treated with combinations of antibody-inhibitor complexes and compared with appropriate control groups.
This colony-assay is used for quantification of anchorage-independent clonal cell growth and is a standard in vitro surrogate for tumorigenicity in vivo.

The test system of data set [3] is HBL-1 DLBCL-cells. As to the kind of experiment: NSG-HBL1 xenograft model. The data set is classed as in vivo. Particulars: after treatment start, groups of 10 mice. As for the experimental part:
A. Tumor growth and treatment regimen of the NSG-HBL1 xenograft model. After transplantation, tumors were grown to 200 mm^3, before treatment was started twice a week intraperitoneally (i.p.). […] On every treatment day, twice a week, tumor volumes were assessed by caliper measurements. […] C. Survival curves of the treatment versus control groups.

Data set [4] has as its system siRNA. The data set is described as follows: Bandshift (electro-mobility shift) assay, siRNA binding. As to conditions: preparation containing free SMCC-protamine. As for the experimental part: We analysed the siRNA binding capacity of these different conjugations by our routine bandshift assays (FIG. 40A-F).
The principle of genetic fusion between cell-determining targeting moiety and the electrostatic siRNA binder protamine such as presented in Song et al. was evaluated by applying this strategy to in a variation to target e.g. leukemic blasts (FIG. 48). The well-known anti-CD33 receptor antibody gemtuzumab was expressed with (FIG. 51) and without a direct genetic fusion to protamine as a siRNA carrier.

The nature of data set [5]: Bandshift assay, SM-1/RF binding. Particulars: free SMCC-protamine present; listed as Not SMCC-protamine depleted CD20-mAB-preparations.
Source text: Subsequently, we performed the same experiments for the binding between SM-1/RF and two carrier systems, rituximab (CD20)-protamine and the reliable cetuximab (EGFR)-protamine.
Data set [6] is described as follows: Bandshift assay, ibrutinib-Cy3.5 binding. As to conditions: free protamine-SMCC present; listed as Not protamine-SMCC depleted αCD20-mAB-preparations.

Regarding `C=CC(=O)N1CCC[C@@H](n2nc(-c3ccc(Oc4ccccc4)cc3)c3c(N)ncnc32)C1` [ibrutinib, 1-[(3R)-3-[4-amino-3-(4-phenoxyphenyl)pyrazolo[3,4-d]pyrimidin-1-yl]piperidin-1-yl]prop-2-en-1-one], the “nanoparticle/vesicle formation, cell-free” value in data set [1] (listed as uncharged ibrutinib) is recorded as “not with uncharged ibrutinib”. The “colony formation” value in data set [2] was “much lesser degree”. Further, the “day by which all/last mice had to be sacrificed” value in data set [3] was found to be 20 days.
With “CD20-mAB rituximab-protamine/P conjugates: anti-CD20 antibody rituximab conjugated via sulfo-SMCC to protamine, containing free SMCC-protamine”, the “siRNA bound per mol of antibody carrier” value was 8 mol in data set [4], “around 16 mol” in data set [4] (listed as Anti-CD20 mAB conjugated to SMCC-protamine) and “about 8 mol” in data set [4] (listed as rituximab-protamine). Moreover, the “SM-1/RF complexed per mol of carrier mAB” value in data set [5] is more than 32 mol. Also, the “ibrutinib-Cy3.5 complexed per mol of carrier mAB” value in data set [6] was more than 32 mol. For the same compound, in data set [1], the “Microscopic analysis” value is recorded as “No visible”.
For rituximab: anti-CD20 antibody, the “colony formation” value in data set [2] is given as “only a mild effect on colony growth”. In addition, the “day by which all/last mice had to be sacrificed” value in data set [3] was not above 16 days.
